Assay [1] concerns the target T1, α4β2 subtype of nicotinic acetylcholine receptors (Rattus norvegicus, UniProt P09483+P12390).
T1 construct: examined using rat brain membrane obtained from whole homogenized brain; from tissue; host or cells: whole brain membranes of Fischer-344 male rats
The assay is described as follows: Binding assay at α4β2 subtype of nicotinic acetylcholine receptors ([3H]-cytisine, rat brain membrane). The source says:
The methods for evaluating the binding capabilities of the compounds against nicotinic acetylcholine receptors are different by subtypes of receptors. The binding capabilities of the compounds at α4β2 nicotinic acetylcholine receptors are examined using rat brain membrane obtained from whole homogenized brain, and determining the inhibiting rate of the compounds against [^3H]-cytisine binding to said brain membrane. Furthermore, the binding capabilities of the compounds at α1β1γδ nicotinic acetylcholine receptors are examined using homogenized rat muscle, and determining the inhibiting rate of the compounds against [^3H]-α-bungarotoxin binding to said muscle membrane.
Binding Assays at α4β2 Subtype of Nicotinic Acetylcholine Receptors
The affinity of the compounds of the present invention to α4β2 subunit of nicotinic acetylcholine receptors was performed by the following method, which was modified method described by Pabreza L. A., Dhawan S. & Kellar K. J., Mol. Pharm., 39, 9-12 (1990), and by Anderson D. J. & Arneric S. P., Eur. J. Pharm., 253, 261-267 (1994).
(1) Preparation of Rat Brain Membrane Containing α4β2 subtype of Nicotinic Acetylcholine Receptors
Fischer-344 strain male rats (body weight: 200-240 g; 9 weeks old) obtained from Charles River Japan were used. Rats were housed in the breeding cage controlled of the room temperature at 23±1° C., and the humidity of 55±5% for 1 to 4 weeks. Rats (3 to 4 rats per a cage) were housed with lights on for 12 hours daily (from 7:00 to 19:00), and allowed free access to food and water.
Preparation of rat brain membrane containing α4β2 subtype of nicotinic acetylcholine receptors was performed as follow. That is, rat brains were isolated just after sacrificed by decapitation, washed with ice-cooled saline solution and then frozen at −80° C. with liquid nitrogen and stored till using. After thawing the frozen brain, the brain was homogenized in 10 volumes of buffer solution (50 mM of Tris-HCl, 120 mM of NaCl, 5 mM of KCl, 1 mM of MgCl2, 2mM of CaCl2; pH 7.4; 4° C.) using homogenizer (HG30, Hitachi Kohki Ltd.) for 30 seconds, and the homogenate were centrifuged under 1,000×G for 10 minutes at 4° C. The resulting supernatant was separated and the pellet was homogenized again with half volume of aforementioned prior buffer solution and centrifuged under the same conditions. Combined supernatant was further centrifuged under 40,000×G for 20 minutes at 4° C. The pellet was suspended in buffer solution and used for binding assays at receptors.
(2) Experiments of α4β2 Subtype of Nicotinic Acetylcholine Receptors Binding
Suspensions of membrane pellets containing 400-600 μg of protein were added to test tubes containing test compounds and [^3H]-cytisine (2 nM) in a final volume of 200 μl and incubated for 75 minutes in ice-cooled bath. The samples were isolated by vacuum filtration onto Whatman GF/B filters, which were prerinsed with 0.5% polyethylenimine just prior to sample filtration, using Brandel multi manifold cell harvester. The filters were rapidly washed with buffer solution (3×1 ml). The filters were counted in 3 ml of clearsol I (Nacalai Tesque Inc.).
The analyses of the experimental results were conducted by using the Accufit Competition Program (Beckman Ltd.).

The target in assay [2] is T2, α1β1γδ subtype of nicotinic acetylcholine receptors (Rattus norvegicus, UniProt P25108).
T2 construct: The centrifugation at 100,000×G for 60 minutes at 4° C. yielded the rat muscle extract as supernatant
The assay can be described thus: biochemical. Conditions: % of control binding remaining. The class given is binding.

T1 sequence (P09483 31-630): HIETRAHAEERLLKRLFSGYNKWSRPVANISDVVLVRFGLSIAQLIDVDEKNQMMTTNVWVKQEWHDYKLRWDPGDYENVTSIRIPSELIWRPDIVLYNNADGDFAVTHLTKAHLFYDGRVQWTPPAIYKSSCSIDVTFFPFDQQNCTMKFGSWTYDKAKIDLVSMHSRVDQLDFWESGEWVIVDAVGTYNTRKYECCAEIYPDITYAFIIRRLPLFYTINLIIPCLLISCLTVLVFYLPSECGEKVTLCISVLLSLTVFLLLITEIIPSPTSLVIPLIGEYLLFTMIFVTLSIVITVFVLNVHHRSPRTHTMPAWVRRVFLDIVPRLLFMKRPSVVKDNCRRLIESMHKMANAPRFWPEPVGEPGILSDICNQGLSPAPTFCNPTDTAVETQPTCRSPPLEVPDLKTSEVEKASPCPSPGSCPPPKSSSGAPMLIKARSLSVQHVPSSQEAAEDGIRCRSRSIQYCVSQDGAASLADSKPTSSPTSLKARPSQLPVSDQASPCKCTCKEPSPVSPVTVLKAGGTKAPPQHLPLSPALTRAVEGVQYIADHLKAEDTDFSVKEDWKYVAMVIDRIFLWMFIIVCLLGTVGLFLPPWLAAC
T1 sequence (P12390 25-500): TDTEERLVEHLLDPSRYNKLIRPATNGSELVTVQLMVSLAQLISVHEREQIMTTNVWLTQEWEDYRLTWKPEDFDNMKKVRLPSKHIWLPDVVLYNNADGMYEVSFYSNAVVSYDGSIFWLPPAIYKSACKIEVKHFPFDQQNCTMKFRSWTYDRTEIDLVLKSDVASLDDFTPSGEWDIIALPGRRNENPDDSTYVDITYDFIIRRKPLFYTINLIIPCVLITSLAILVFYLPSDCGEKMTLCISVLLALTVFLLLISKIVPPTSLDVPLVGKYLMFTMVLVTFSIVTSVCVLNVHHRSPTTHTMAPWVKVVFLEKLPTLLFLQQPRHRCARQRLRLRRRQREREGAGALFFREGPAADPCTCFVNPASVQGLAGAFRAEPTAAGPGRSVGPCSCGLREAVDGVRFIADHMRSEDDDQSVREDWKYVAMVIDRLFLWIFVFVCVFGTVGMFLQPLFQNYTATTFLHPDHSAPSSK
T2 sequence (P25108 21-457): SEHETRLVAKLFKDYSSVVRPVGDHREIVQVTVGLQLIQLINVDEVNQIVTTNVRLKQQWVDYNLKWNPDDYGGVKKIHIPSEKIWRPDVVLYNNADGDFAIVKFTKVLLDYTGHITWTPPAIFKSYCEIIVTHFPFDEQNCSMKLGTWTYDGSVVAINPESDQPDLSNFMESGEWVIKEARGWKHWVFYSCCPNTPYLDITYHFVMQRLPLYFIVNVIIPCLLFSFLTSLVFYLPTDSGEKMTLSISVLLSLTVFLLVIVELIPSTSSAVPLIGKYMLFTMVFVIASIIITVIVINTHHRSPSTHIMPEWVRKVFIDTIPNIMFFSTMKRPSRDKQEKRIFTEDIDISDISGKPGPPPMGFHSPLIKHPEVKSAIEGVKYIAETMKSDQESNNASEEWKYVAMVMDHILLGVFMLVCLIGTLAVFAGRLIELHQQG
T2 sequence (P25109 24-501, further chain): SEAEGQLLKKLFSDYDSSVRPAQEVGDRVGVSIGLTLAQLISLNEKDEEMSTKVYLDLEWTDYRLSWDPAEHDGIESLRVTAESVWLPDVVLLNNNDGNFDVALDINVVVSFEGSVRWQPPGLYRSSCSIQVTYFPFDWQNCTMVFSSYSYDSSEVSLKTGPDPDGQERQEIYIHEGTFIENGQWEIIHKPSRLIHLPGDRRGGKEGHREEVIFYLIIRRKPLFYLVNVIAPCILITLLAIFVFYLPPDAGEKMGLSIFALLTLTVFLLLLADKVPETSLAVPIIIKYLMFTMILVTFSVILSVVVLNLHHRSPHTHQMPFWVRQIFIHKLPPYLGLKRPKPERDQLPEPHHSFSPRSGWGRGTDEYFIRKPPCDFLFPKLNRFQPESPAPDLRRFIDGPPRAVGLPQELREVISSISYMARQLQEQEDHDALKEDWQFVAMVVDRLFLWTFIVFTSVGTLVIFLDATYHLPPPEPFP
T2 sequence (P25110 22-517, further chain): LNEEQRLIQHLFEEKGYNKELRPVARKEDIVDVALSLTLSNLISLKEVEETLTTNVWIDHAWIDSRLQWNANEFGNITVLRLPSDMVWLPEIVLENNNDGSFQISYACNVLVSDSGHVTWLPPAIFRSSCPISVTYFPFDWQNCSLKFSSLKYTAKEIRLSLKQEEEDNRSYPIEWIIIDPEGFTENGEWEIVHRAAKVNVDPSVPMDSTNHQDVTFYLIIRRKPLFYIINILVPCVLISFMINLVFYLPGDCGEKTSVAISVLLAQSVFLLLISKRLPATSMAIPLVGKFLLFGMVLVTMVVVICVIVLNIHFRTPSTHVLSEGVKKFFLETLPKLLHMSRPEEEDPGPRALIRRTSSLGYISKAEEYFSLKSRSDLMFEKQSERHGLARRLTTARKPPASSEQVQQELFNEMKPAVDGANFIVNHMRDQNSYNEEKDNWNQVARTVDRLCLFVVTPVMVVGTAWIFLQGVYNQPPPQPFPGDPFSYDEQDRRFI

Consider `Clc1ccc(C/N=C2\SCCN2Cc2ccc(Cl)nc2)cn1` [Compound 1, 3-(6-chloro-3-pyridyl)methyl-2-[(6-chloro-3-pyridyl)methyl]iminothiazolidine], for which, in assay [1], the Ki came to 16 nM.

For `Clc1ccc(C/N=C2\OCCCN2Cc2ccc(Cl)nc2)cn1` [Compound 2, 3-(6-chloro-3-pyridyl)methyl-2-[(6-chloro-3-pyridyl)-methyl]imino-3,4,5,6-tetrahydro-2H-1,3-oxazine], the “control % of [3H]-α-Bgt binding at 100 μM of test compound” value in assay [2] (100 μM test compound) was 95%. In addition, in assay [2] (1,000 μM test compound), the “control % of [3H]-α-Bgt binding at 1,000 μM of test compound” value came out at 56%. Further, the affinity in assay [1] corresponds to a Ki of 22 nM.

Compound `Clc1ccc(C/N=c2\sccn2Cc2ccc(Cl)nc2)cn1` [Compound 8, 3-(6-chloro-3-pyridyl)methyl-2-[(6-chloro-3-pyridyl)methyl]imino-2,3-dihydrothiazole] showed a Ki in assay [1] of 42 nM.

Turning to `Cn1ccn(Cc2ccc(Cl)nc2)c1=N` [Compound 13, 1-(6-chloro-3-pyridyl)methyl-2-imino-3-methyl-2,3-dihydroimidazole], the affinity in assay [1], expressed as Ki, was 15 nM.

These data come from patent publication US6900202B2, “Di-substituted imineheterocyclic compounds” (priority 2000, dated 2005).
